In US8377934B2, “Use of stilbene derivatives for treatment and prevention of aquatic mold infections” (State of Israel, Ministry of Agriculture & Rural …, priority 2006, dated 2013):
≈ marks a conversion by molar mass, not a printed value.

Experiments:
[1] = system: S. parasitica CBS 540.67; assay: Agar-dilution susceptibility testing (filamentous hyphae); format: cell-based, Saprolegnia parasitica
[2] = system: S. parasitica T-1; assay: Broth macrodilution susceptibility testing (zoospores and cysts); format: cell-based, Saprolegnia parasitica; details: 24 h
Procedure: (§1) Two methods were used, each suitable for a different phase of the asexual life cycle of Saprolegnia spp.: i) the broth macrodilution method, for determination of susceptibility of zoospores and cysts; and ii) the agar-dilution method for determination of susceptibility of filamentous hyphae. Each compound was tested three times in each method. Malachite Green was used as positive control.
(§2) This method is a modification of the method used for molds according to EUCAST 7.1 (European Committee on Antibiotic Susceptibility Testing) and CLSI/NCCLS M27-A2 (Clinical Laboratory Standards Institute/National Committee for Clinical Laboratory Standards). For inoculum preparation, S. parasitica isolates were cultured on GP-PS for 7 days with sterile clover seeds at 18° C. […] Cysts and zoospores free from hyphae were collected, and an inoculum of ˜10^3 CFU/ml as measured by hemacytometer counting, was prepared in RPMI. Fluorescent Brightener 28 stock solution was prepared by adding 40% KOH gradually to a 10 mg/ml solution in water, until it was clear, then it was filtered twice through a 0.2 μm cellulose acetate nonpyrogenic sterile filter (Schleicher & Schuell, Dassel, Germany).
(§3) Final drug concentrations in the test tubes ranged from 1×10^4 to 0.01 mg/L. Inoculum of 0.9 ml was added to each of a sterile tube containing 0.1 ml of the serially diluted drug. Two tubes containing drug-free medium and two tubes containing drug-free inoculum were used as controls. The inoculated tubes were incubated at room temperature (15-20° C.) for 24 h. The growth in each tube was then evaluated visually.

[3] = system: S. parasitica CBS 540.67; assay: as above; format: cell-based, Saprolegnia parasitica
Procedure: as §1, §2, §3

[4] = system: Saprolegnia parasitica T-1; assay: Tilapia-saprolegniosis early infection model; format: in vivo, Hybrid tilapia (Oreochromis niloticus X Oreochromis aureus)
Procedure: Hybrid tilapia (Oreochromis niloticus X Oreochromis aureus), with an average weight of 20 g were treated against ectoparasites using 25 μg/ml of formaldehyde (37% v/v) two weeks prior to the experiment, and were maintained at a constant temperature of 21° C. in a 100 liter polyethylene tank. The water tank was cooled from an initial temperature of 21° C. to 14° C. over a period of 10 days. The water was kept at a constant temperature of 14° C. and the fish were acclimated for 4 days. Physical stress of abrasion was then applied by agitating 40 fish for 10 seconds within a plastic net (30×20 cm). Following this, a sterile stainless steel tea infuser containing 60 clover-seeds covered with hyphae of Saprolegnia parasitica T-1 (7 day old culture on GP-PS medium at 18° C.) was added to each tank, in which the fish density was 20 fish per 100 liters. This treatment lasted 48 h and allowed the dispersion of zoospores that were produced. The density of the zoospores in the water was determined according to the method described below, and was estimated as 5×10^2-2×10^3 zoospores per liter. The fish were then transferred to different tanks, and treated with Blankophor® BA (200, 100, 50 or 25 mg/L) or Malachite Green (0.25 mg/L) for 8 h at 13-14° C., with 10 fish per 100 L water. The treatments were applied on 2nd, 4th and 6th day following initiation of the experiment. The fish were monitored for 14 days for the presence of any lesion covered with hyphae, indicative of Saprolegnia infection. Skin biopsies of diseased and moribund fish were checked microscopically (10× and 40× magnification). Morbidity and mortality was monitored daily. Moribund and or dead fish were removed from all tanks during the experimental period.
The determination of zoospore density in the water was performed according to Willoughby, L. G. (1994) Fungi and fish diseases, Pisces Press, Stirling, Scotland p. 57.
In brief, a 1 liter sample of water from the 100 liter tank was divided into 1 and 10 ml aliquots in sterile Petri dishes. Each sample was diluted with water to give a final volume of 20 ml and then one sterile clover seed was added in order to attract and keep the zoospores. All the water samples were incubated at room temperature for 72 h allowing spore germination. The density of the zoospores was determined according to the number of seeds covered with visible mycelium.
Treatments were carried out on the 2nd, 4th and 6th days after the initiation of the infection, and each treatment was for a period of 8 h. Fish treated with 0.25 mg/L Malachite Green served as a positive treatment control. Fish were monitored for 14 days. […] All fish treated with Blankophor BA survived for at least 10 days following initiation of the infection, in contrast to untreated fish which progressively died from the 3rd day.
Due to the high efficacy of the treatment with 100 mg/L Blankophor® BA, additional experiments were performed using lower concentrations of Blankophor® BA (50 and 25 mg/L). As in the previous experiments, infected fish were treated in tanks containing different concentrations of the compound on the 2nd, 4th and 6th days after the initiation of the infection. In addition, two additional treatment regimens were added i.e. 50 mg/L (administered on the 2nd and 9th days after initiation of the infection) and 100 mg/L (administered on the 2nd day after initiation of the infection).

[5] = S. parasitica CBS 540.67, 24 h, 15-20° C., geometric mean of three tests

SMILES | MIC ([1]; Saprolegnia parasitica, CBS540, 24 h, read-out: MIC, Agar-dilution) [µg/mL] | MIC ([2]; Saprolegnia parasitica, read-out: MIC, Macrodilution) [µg/mL] | MIC ([3]; Saprolegnia parasitica, CBS540, 24 h, read-out: MIC, Macrodilution) [µg/mL] | fish died within 14 days ([4]; 100 mg/L on 2nd, 4th and 6th days) [%] | MIC, Agar-dilution [1, 5] [µg/mL] | MIC, Macrodilution ([2]; S. parasitica T-1, 15-20° C., geometric mean of three tests) [µg/mL] | MIC, Macrodilution [3, 5] [µg/mL] | preventing and treating saprolegniosis in tilapia fish ([4]; 25 mg/liter for 8 hours) | clinical observation, lesions ([4]; 50 and 100 mg/L) | culture for Saprolegnia ([4]; 50 and 100 mg/L) | survival following initiation of the infection ([4]; 100 and 200 mg/L, 8 h on 2nd, 4th and 6th day, all treated fish) | therapeutic efficacy (survival of fish) ([4]; 100 and 200 mg/L, 8 h on 2nd, 4th and 6th day, monitored 14 days) | Therapeutic efficacy ([4]; Table 4 summary) | efficacy in preventing and treating early stage saprolegniosis ([4]; even at a concentration as low as 25 mg/L, also 50 mg/L (days 2, 9) and 100 mg/L (day 2))
C=O [Formaldehyde] | 100 (≈ 3.33 mM) | 100 (≈ 3.33 mM) | 100 (≈ 3.33 mM) | 70 | – | – | – | – | – | – | – | – | – | –
O=S(=O)([O-])c1cc(Nc2nc(Nc3ccccc3)nc(N(CCO)CCO)n2)ccc1C=Cc1ccc(Nc2nc(Nc3ccccc3)nc(N(CCO)CCO)n2)cc1S(=O)(=O)[O-].[K+].[Na+] [Blankophor® BA] | – | – | – | – | 200 | 100 | 200 | effective | free of lesions | negative upon culture | at least 10 days | as effective as Malachite Green | Very Effective | highly effective
